Data reported in ChEMBL document CHEMBL4325865, “Optimization of a fragment linking hit toward Dengue and Zika virus NS5 methyltransferases inhibitors” (Eur J Med Chem, 2019).
The source made the active and inactive calls. The calls are words filed in the database; no cut-off is given here.

Assays:
Nonstructural protein 5 = Nonstructural protein 5 (Dengue virus, UniProt V5TFZ2); test: Inhibition of DENV3 2'-O-MTase assessed as reduction in [3H]AdoMet transfer on to capped GpppAC4 RNA after 30 mins by microbeta liquid scintillation counting method; set-up: species or system dengue virus type 3
Genome polyprotein [1] = target: Genome polyprotein (Zika virus, UniProt Q32ZE1); test: Inhibition of ZIKV 2'-O-MTase assessed as reduction in [3H]AdoMet transfer on to capped GpppAC4 RNA after 30 mins by microbeta liquid scintillation counting method
Genome polyprotein [2] = target: Genome polyprotein (West Nile virus, UniProt P06935); test: Inhibition of WNV 2'-O-MTase assessed as reduction in [3H]AdoMet transfer on to capped GpppAC4 RNA after 30 mins by microbeta liquid scintillation counting method
dengue virus type 2 = test: Antiviral activity against DENV2 CNR 25679 infected in African green monkey Vero E6 cells assessed as reduction in viral replication up to 20 uM by RT-PCR analysis; type: functional, organism-based; conditions: Vero C1008
Zika virus = test: Antiviral activity against ZIKV H/PF/2013 infected in African green monkey Vero E6 cells assessed as reduction in viral replication up to 20 uM by RT-PCR analysis; type: functional, organism-based; conditions: Vero C1008
Vero C1008 = test: Cytotoxicity against African green monkey Vero E6 cells up to 100 uM; type: cell-based; conditions: chlorocebus sabaeus
[3] = Cytotoxicity against African green monkey Vero E6 cells; type: cell-based; conditions: chlorocebus sabaeus, Vero E6 cells (Vero C1008)

Genome polyprotein (Zika virus, UniProt Q32ZE1), sequence (Q32ZE1 2517-3419 limits assumed): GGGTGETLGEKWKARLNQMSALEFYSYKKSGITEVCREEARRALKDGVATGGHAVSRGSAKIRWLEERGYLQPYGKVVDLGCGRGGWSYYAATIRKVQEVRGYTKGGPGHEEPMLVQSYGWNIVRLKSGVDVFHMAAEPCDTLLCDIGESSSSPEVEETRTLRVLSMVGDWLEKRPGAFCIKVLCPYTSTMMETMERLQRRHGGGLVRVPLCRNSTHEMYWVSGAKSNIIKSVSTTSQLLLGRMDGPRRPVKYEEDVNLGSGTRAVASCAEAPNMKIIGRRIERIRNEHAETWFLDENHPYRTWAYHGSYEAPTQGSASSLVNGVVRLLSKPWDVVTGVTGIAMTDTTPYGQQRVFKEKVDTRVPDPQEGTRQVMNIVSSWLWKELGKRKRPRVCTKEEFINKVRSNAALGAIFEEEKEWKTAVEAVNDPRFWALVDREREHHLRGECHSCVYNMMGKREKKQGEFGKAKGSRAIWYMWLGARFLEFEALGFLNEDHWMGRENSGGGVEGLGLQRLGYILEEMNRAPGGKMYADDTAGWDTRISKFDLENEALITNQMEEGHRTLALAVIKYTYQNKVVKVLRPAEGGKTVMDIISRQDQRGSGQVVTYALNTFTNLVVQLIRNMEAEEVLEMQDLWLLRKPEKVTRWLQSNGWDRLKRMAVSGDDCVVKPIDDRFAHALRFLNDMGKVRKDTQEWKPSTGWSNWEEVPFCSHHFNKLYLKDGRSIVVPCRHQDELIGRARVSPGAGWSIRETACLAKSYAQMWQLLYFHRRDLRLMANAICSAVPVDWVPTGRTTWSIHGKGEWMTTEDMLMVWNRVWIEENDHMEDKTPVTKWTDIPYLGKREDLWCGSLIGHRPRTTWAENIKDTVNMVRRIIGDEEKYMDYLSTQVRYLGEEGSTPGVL
Genome polyprotein (West Nile virus, UniProt P06935), sequence (P06935 2526-3430 limits assumed): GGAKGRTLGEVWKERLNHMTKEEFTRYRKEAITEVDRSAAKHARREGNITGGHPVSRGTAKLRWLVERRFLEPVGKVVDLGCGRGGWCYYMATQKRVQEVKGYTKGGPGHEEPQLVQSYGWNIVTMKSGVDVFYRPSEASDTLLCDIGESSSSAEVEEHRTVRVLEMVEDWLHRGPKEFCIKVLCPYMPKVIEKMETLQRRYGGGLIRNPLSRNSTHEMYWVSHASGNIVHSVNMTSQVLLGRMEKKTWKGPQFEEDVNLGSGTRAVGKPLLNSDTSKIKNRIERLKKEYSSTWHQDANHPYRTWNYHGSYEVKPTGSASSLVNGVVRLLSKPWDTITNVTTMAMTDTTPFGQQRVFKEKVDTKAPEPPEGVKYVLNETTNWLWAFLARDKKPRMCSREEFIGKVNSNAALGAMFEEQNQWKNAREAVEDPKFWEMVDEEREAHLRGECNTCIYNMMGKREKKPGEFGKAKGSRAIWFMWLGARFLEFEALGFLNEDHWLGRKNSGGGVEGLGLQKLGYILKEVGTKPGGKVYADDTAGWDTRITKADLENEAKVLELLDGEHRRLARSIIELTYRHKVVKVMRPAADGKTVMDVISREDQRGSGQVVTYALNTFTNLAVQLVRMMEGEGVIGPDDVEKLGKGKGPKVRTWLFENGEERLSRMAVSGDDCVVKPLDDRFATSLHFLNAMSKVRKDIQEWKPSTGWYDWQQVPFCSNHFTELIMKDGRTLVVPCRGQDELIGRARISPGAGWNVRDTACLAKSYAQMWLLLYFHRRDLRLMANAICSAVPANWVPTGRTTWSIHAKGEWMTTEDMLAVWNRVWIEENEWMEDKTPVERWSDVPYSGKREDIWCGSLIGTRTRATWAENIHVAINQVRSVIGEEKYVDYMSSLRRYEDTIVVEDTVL
Nonstructural protein 5, sequence (V5TFZ2 whole entry): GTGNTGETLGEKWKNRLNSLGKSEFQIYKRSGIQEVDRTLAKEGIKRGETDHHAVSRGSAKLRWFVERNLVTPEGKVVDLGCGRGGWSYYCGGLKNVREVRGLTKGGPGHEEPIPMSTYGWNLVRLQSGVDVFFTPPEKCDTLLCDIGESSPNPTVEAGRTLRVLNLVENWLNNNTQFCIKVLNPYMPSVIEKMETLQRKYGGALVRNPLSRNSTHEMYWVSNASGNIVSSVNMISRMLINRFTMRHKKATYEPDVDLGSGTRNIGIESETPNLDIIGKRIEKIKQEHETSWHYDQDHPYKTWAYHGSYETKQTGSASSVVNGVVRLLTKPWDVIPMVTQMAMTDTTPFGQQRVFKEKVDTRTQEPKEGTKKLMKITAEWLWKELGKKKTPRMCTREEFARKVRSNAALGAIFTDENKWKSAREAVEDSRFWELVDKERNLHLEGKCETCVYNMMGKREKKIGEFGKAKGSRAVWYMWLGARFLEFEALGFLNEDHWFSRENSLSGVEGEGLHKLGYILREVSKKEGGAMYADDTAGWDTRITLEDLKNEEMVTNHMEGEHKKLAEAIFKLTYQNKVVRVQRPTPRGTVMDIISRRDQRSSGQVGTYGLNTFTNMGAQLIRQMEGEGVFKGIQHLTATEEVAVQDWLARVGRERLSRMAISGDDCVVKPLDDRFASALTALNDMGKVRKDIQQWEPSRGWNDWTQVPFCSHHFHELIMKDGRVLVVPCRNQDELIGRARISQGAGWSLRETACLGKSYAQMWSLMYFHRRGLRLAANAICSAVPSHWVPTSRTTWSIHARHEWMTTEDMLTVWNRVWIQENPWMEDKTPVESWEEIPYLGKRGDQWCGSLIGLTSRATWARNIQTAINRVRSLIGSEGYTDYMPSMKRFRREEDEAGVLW

| SMILES | IC50 (Nonstructural protein 5) | IC50 (Genome polyprotein [1]) | IC50 (Genome polyprotein [2]) | Activity (dengue virus type 2) | Activity (Zika virus) | Activity (Vero C1008) | CC50 [3] |
| --- | --- | --- | --- | --- | --- | --- | --- |
| Nc1cc(C(F)(F)F)ccc1NC(=O)Nc1cccc(S(=O)(=O)NCCCC(=O)O)c1 | 342 µM | 132 µM | – | – | – | – | – |
| Nc1cc(C(F)(F)F)ccc1NC(=O)Nc1ccc(S(=O)(=O)Nc2ccc(C(=O)O)cc2)cc1 | 110 µM | 67 µM | 51 to 299 µM | – | – | – | – |
| Nc1cc(Cl)ccc1NC(=O)Nc1ccc(S(=O)(=O)Nc2ccc(C(=O)O)cc2)cc1 | 435 µM | 87 µM | 51 to 299 µM | – | – | – | – |
| Nc1cc(Cl)ccc1NC(=O)Nc1ccc(S(=O)(=O)Oc2ccc(C(=O)O)cc2)cc1 | 368 µM | 31 µM | 51 to 299 µM | – | – | – | – |
| Nc1cc(C(F)(F)F)ccc1NC(=O)Nc1ccc(S(=O)(=O)Oc2cccc(CC(=O)Oc3cccc(CC(=O)O)c3)c2)cc1 | 24 µM | 19 µM | – | inactive | inactive | Non-Toxic | – |
| COC(=O)CCCNS(=O)(=O)c1cccc(NC(=O)Nc2ccc(C(F)(F)F)cc2[N+](=O)[O-])c1 | 400 µM | 400 µM | – | – | – | – | – |
| Nc1cc(Cl)ccc1NC(=O)Nc1cccc(S(=O)(=O)Nc2ccc(C(=O)O)cc2)c1 | 452 µM | 221 µM | 51 to 299 µM | – | – | – | – |
| O=C(O)Cc1cccc(OS(=O)(=O)c2ccc(NC(=O)Nc3ccc(C(F)(F)F)cc3[N+](=O)[O-])cc2)c1 | 26 µM | 28 µM | – | inactive | inactive | – | 37.5 µM |
| Nc1cc(C(F)(F)F)ccc1NC(=O)Nc1cccc(S(=O)(=O)Nc2ccc(CC(=O)O)cc2)c1 | 144 µM | 135 µM | – | – | – | – | – |
| Nc1cc(C(F)(F)F)ccc1NC(=O)Nc1cccc(S(=O)(=O)NCc2cccc(C(=O)O)c2)c1 | 304 µM | 95 µM | – | – | – | – | – |
| Nc1cc(C(F)(F)F)ccc1NC(=O)Nc1ccc(S(=O)(=O)Oc2cccc(CC(=O)O)c2)cc1 | 276 µM | 111 µM | – | – | – | – | – |
| Nc1cc(C(F)(F)F)ccc1NC(=O)Nc1cccc(S(=O)(=O)NCc2ccc(C(=O)O)cc2)c1 | 366 µM | 122 µM | – | – | – | – | – |
| O=C(Nc1cccc(S(=O)(=O)NCc2cccc(C(=O)O)c2)c1)Nc1ccc(C(F)(F)F)cc1[N+](=O)[O-] | 400 µM | 136 µM | – | – | – | – | – |
| CN1CCC(CNS(=O)(=O)c2ccc(NC(=O)Nc3ccc(C(F)(F)F)cc3[N+](=O)[O-])cc2)C1 (stereo not drawn) | 400 µM | 400 µM | – | – | – | – | – |

Further compounds by falling IC50 (Nonstructural protein 5), results first:

| IC50 (Nonstructural protein 5) | IC50 (Genome polyprotein [1]) | IC50 (Genome polyprotein [2]) | SMILES | Activity (dengue virus type 2) | Activity (Zika virus) | Activity (Vero C1008) | CC50 [3] |
| --- | --- | --- | --- | --- | --- | --- | --- |
| 400 µM | 400 µM | – | CN1CCC(CNS(=O)(=O)c2ccc(NC(=O)Nc3ccc(C(F)(F)F)cc3N)cc2)C1 (stereo not drawn) | – | – | – | – |
| 369 µM | 33 µM | 51 to 299 µM | Nc1cc(Cl)ccc1NC(=O)Nc1cccc(S(=O)(=O)Oc2ccc(C(=O)O)cc2)c1 | – | – | – | – |
| 181 µM | 185 µM | – | O=C(O)Cc1ccc(NS(=O)(=O)c2cccc(NC(=O)Nc3ccc(C(F)(F)F)cc3[N+](=O)[O-])c2)cc1 | – | – | – | – |
| 174 µM | 61 µM | – | Nc1cc(C(F)(F)F)ccc1NC(=O)Nc1ccc(S(=O)(=O)NCc2cccc(C(=O)O)c2)cc1 | inactive | inactive | Non-Toxic | – |
| 145 µM | 83 µM | – | O=C(Nc1ccc(S(=O)(=O)NCc2cccc(C(=O)O)c2)cc1)Nc1ccc(C(F)(F)F)cc1[N+](=O)[O-] | inactive | inactive | – | 70 µM |
| 91 µM | 24 µM | 51 to 299 µM | Nc1cc(C(F)(F)F)ccc1NC(=O)Nc1cccc(S(=O)(=O)Nc2ccc(C(=O)O)cc2)c1 | – | – | – | – |
